What was measured:
[1] = target: T1, Membrane-associated tyrosine- and threonine-specific cdc2-inhibitory kinase (Homo sapiens) (UniProt Q99640); experiment: Inhibition of PKMYT1 (unknown origin) assessed as residual activity at 1000 nM by KINOMEscan analysis relative to control
T1 sequence (whole entry): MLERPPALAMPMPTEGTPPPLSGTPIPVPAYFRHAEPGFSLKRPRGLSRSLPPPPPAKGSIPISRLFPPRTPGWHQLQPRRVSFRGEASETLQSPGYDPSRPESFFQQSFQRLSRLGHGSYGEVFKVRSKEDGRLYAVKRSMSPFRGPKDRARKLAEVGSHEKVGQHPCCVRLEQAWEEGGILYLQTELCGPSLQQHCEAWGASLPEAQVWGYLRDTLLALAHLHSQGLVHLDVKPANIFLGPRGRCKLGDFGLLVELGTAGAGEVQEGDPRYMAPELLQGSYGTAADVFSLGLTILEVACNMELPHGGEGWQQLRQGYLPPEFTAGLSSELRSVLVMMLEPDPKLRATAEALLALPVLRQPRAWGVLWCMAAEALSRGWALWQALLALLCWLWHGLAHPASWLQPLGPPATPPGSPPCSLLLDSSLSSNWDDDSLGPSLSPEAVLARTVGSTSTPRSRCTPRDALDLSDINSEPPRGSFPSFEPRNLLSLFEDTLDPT

[2] = target: Mast/stem cell growth factor receptor Kit (Homo sapiens) (UniProt P10721); experiment: Inhibition of KIT (unknown origin) assessed as residual activity at 1000 nM by KINOMEscan analysis relative to control
Mast/stem cell growth factor receptor Kit (Homo sapiens), sequence (P10721 whole entry): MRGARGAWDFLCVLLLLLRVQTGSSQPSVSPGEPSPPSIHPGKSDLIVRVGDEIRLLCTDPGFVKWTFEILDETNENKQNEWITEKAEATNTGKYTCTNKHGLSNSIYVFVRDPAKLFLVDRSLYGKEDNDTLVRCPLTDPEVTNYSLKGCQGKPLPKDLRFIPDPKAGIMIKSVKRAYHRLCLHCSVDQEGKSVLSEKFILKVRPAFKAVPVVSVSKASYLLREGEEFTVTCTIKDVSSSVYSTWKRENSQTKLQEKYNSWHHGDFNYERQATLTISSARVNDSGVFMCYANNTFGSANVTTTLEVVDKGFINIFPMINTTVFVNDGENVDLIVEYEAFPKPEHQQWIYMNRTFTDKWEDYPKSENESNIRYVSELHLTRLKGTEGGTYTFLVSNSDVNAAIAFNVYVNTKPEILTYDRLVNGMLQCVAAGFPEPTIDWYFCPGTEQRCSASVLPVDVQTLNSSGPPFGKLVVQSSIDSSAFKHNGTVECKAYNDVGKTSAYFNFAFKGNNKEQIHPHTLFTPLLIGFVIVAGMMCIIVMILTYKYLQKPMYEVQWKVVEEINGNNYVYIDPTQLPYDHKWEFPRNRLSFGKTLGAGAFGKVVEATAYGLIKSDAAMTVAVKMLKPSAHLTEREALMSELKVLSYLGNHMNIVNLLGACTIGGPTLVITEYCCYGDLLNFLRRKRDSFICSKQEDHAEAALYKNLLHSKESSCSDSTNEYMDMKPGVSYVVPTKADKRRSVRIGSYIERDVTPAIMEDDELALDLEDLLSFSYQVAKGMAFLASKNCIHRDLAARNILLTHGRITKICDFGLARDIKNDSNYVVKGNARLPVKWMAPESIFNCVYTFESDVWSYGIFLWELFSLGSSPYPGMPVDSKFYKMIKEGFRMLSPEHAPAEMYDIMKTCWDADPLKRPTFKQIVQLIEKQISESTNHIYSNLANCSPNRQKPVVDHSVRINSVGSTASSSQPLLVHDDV

[3] = target: Dual specificity testis-specific protein kinase 1 (Homo sapiens) (UniProt Q15569); experiment: Inhibition of TESK1 (unknown origin) assessed as residual activity at 1000 nM by KINOMEscan analysis relative to control
Dual specificity testis-specific protein kinase 1 (Homo sapiens), sequence (Q15569 whole entry, looked up): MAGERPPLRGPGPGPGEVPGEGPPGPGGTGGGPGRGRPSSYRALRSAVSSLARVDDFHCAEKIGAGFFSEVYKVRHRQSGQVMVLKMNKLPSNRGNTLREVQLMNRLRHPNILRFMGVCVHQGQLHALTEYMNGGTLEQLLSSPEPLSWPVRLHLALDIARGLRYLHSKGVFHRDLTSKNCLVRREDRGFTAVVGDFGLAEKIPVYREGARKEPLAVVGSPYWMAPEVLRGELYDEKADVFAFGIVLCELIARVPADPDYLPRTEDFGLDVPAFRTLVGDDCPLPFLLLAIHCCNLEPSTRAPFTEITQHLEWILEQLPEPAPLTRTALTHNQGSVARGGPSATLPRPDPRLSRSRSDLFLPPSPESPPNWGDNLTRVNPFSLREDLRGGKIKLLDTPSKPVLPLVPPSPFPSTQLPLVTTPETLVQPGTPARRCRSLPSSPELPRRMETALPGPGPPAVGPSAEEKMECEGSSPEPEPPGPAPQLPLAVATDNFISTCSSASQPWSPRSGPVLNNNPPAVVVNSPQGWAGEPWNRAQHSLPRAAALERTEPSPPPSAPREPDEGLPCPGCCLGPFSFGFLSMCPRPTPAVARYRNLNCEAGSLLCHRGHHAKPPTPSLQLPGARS

[4] = target: T2, Serine/threonine-protein kinase BRSK2 (Homo sapiens) (UniProt Q8IWQ3); experiment: Inhibition of BRSK2 (unknown origin) assessed as residual activity at 1000 nM by KINOMEscan analysis relative to control
T2 sequence (whole entry): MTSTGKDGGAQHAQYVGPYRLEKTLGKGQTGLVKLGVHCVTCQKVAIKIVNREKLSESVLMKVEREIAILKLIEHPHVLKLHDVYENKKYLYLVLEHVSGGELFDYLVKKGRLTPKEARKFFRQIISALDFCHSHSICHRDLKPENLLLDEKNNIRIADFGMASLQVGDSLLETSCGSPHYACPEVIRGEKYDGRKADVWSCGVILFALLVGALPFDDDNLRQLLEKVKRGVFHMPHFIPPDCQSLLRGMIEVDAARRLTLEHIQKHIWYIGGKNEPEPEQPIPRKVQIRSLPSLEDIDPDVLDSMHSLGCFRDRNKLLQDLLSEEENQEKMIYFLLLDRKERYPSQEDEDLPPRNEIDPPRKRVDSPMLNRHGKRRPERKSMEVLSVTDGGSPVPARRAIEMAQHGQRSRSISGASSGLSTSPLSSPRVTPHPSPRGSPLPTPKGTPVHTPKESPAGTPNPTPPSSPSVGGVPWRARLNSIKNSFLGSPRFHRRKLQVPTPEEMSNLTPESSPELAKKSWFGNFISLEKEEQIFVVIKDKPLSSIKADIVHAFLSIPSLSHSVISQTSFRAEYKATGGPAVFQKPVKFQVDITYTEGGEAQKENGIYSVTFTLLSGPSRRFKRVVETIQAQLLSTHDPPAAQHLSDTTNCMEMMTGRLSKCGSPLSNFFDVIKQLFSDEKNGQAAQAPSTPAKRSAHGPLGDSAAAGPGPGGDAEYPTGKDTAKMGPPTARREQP

[5] = target: T3, Ephrin type-B receptor 3 (Homo sapiens) (UniProt P54753); experiment: Inhibition of EPHB3 (unknown origin) assessed as residual activity at 1000 nM by KINOMEscan analysis relative to control
T3 sequence (whole entry): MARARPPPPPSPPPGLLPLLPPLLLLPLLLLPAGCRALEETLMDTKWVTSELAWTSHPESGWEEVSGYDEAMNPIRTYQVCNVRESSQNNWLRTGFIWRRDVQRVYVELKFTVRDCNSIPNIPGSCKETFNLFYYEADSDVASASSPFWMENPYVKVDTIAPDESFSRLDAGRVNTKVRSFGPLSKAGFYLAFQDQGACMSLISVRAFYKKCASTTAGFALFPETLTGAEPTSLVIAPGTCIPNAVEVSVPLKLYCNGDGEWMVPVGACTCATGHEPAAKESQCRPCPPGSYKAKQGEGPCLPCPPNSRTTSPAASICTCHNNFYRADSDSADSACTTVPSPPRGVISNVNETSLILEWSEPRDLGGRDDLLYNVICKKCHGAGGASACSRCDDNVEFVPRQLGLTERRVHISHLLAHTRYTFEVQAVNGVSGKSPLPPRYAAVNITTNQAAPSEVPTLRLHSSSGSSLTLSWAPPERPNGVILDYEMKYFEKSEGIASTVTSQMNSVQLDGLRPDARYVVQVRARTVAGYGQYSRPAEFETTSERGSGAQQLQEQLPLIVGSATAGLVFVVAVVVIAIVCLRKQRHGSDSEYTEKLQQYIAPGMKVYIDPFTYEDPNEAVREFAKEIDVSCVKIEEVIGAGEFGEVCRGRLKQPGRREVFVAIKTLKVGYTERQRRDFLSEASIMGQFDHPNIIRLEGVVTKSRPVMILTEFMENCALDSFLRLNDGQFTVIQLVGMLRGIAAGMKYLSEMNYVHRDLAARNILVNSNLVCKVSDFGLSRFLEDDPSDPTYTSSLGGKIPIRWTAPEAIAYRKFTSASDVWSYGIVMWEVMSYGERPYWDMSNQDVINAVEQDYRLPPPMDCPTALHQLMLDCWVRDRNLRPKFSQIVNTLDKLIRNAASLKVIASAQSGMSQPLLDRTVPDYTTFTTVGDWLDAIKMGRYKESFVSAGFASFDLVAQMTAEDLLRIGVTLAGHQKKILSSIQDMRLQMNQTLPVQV

[6] = target: Tyrosine-protein kinase receptor Tie-1 (Homo sapiens) (UniProt P35590); experiment: Inhibition of TIE1 (unknown origin) assessed as residual activity at 1000 nM by KINOMEscan analysis relative to control
Tyrosine-protein kinase receptor Tie-1 (Homo sapiens), sequence (P35590 whole entry): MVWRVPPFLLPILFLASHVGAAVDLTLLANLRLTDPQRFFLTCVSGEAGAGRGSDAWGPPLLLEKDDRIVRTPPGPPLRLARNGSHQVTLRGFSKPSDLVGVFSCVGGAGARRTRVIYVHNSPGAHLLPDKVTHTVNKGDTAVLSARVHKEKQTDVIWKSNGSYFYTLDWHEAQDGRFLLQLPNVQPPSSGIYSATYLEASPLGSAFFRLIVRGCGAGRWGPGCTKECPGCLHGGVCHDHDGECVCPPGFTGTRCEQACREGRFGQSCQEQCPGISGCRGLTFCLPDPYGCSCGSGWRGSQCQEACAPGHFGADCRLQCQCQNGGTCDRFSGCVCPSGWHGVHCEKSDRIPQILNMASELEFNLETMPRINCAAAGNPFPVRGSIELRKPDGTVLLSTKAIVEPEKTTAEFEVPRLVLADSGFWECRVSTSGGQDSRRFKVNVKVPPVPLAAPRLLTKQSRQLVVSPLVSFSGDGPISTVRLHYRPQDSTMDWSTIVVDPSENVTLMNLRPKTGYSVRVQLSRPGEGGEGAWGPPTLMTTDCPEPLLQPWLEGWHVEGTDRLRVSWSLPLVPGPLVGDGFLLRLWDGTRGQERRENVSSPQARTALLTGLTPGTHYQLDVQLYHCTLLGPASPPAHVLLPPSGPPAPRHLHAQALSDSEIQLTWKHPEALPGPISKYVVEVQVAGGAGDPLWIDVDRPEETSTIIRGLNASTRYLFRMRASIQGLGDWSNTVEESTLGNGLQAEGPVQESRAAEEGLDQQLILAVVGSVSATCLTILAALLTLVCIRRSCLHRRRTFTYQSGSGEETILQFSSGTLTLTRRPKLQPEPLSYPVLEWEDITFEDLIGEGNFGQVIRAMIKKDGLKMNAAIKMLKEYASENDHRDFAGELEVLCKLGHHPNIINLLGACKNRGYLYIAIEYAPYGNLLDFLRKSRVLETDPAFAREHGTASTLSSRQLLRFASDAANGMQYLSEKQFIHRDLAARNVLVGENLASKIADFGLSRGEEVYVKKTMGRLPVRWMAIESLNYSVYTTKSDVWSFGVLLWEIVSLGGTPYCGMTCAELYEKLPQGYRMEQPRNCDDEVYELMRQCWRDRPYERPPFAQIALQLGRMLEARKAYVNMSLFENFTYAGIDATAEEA

[7] = target: T4, Dual specificity mitogen-activated protein kinase kinase 3 (Homo sapiens) (UniProt P46734); experiment: Inhibition of MEK3 (unknown origin) assessed as residual activity at 1000 nM by KINOMEscan analysis relative to control
T4 sequence (whole entry): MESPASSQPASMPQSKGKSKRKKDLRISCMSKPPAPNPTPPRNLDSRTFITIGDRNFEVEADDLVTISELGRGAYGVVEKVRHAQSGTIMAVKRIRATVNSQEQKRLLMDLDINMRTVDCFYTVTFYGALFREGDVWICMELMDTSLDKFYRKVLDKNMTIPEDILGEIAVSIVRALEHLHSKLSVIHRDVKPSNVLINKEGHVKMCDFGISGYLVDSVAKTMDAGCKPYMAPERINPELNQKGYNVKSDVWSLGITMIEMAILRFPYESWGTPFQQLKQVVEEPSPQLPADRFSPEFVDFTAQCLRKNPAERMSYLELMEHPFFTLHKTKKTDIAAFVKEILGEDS

COc1cc2nc(C)nc(N[C@H](C)c3cccc(-c4cn[nH]c4)c3)c2cc1OC
Activity [1]: 53% | Activity [2]: 99% | Activity [3]: 100% | Activity [4]: 85% | Activity [5]: 100% | Activity [6]: 87% | Activity [7]: 54%

COc1cc2ncnc(N[C@H](C)c3cccc4ccccc34)c2cc1OC
Activity [1]: 100% | Activity [2]: 100% | Activity [3]: 96% | Activity [4]: 78% | Activity [5]: 100% | Activity [6]: 100% | Activity [7]: 100%

Reference: ChEMBL document CHEMBL5678818, “Discovery of potent SOS1 inhibitors that block RAS activation via disruption of the RAS-SOS1 interaction” (Proc Natl Acad Sci U S A, 2019)
